Experimental data from patent US7723417B2, “Fluorochemical composition and method for treating a substrate therewith” (3M Innovative Properties Company, priority 2004, dated 2010).
Where a name gives a salt, the structure may show the parent alone.

Experiment: Water solubility of an additive
Type: physicochemical
Conditions: 25° C., demineralized water
Procedure: The water solubility of an additive was determined at ambient conditions (25° C.) in demineralized water. Measured quantities of additive and demineralized water were combined and shaken for up to two hours. The additive was deemed soluble if a clear solution resulted; the additive was otherwise deemed insoluble. The water solubility of an additive is the maximum concentration of additive producing a clear solution in water.

Molecule | Solubility H2O [w %]
CCCCOC(=O)CC(CC(=O)OCCCC)(OC(C)=O)C(=O)OCCCC [ATBC, Acetyl tributyl citrate] | <0.1
CCCCOC(=O)CC(O)C(=O)OCCCC (stereo not drawn) [DBM, Dibutyl malate] | 0.2
CCCCOC(=O)C(O)C(O)C(=O)OCCCC (stereo not drawn) [DBT, Dibutyl tartarate] | 0.8
CCOC(=O)CC(O)C(=O)OCC (stereo not drawn) [DEM, Diethyl malate] | >10
CC(C)OC(=O)C(O)C(O)C(=O)OC(C)C (stereo not drawn) [DIPT, Diisopropyl tartarate] | >10
C=C(C)C(=O)OCC(CO)OC(=O)C(=C)C (stereo not drawn) [GDM, Glycerol dimethacrylate] | 0.4
CCCCOC(=O)CC(O)(CC(=O)OCCCC)C(=O)OCCCC [TBC, Tributyl citrate] | <0.05
COC(=O)CC(O)(CC(=O)OC)C(=O)OC [TMC, Trimethyl citrate] | 6
C4H9(OC3H6)3—OH [DTPnB] | 3
